From patent US9527832B2, “Substituted condensed pyrimidine compounds” (GRÜNENTHAL GMBH, priority 2013, dated 2016)

Biological target: T1, human PDE4B1 (Homo sapiens, UniProt Q07343)
T1 construct: host or cells: Sf9 cells
Experiment: cAMP HTRF assay to determine the activity of hPDE4B1
Assay type: biochemical
Settings: for inhibition at 1 µM: Percentage inhibition of PDE4B at 1 μM test concentration; for IC50: dose response measurements with eight concentrations, reported as ranges, read-out: IC50
Method in brief: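 Sf9-expressed recombinant human PDE4B1 (4.8 U) in Tris-HCl/MgCl2/DTT/Tween 20 buffer pH 7.8, with cAMP at 40 nM final, 30 min at room temperature. Reaction stopped with IBMX 1 mM; remaining cAMP detected by HTRF (665/620 nm ratio). IC50 from eight-point dose-response, n=2.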

T1 sequence (Q07343 whole entry): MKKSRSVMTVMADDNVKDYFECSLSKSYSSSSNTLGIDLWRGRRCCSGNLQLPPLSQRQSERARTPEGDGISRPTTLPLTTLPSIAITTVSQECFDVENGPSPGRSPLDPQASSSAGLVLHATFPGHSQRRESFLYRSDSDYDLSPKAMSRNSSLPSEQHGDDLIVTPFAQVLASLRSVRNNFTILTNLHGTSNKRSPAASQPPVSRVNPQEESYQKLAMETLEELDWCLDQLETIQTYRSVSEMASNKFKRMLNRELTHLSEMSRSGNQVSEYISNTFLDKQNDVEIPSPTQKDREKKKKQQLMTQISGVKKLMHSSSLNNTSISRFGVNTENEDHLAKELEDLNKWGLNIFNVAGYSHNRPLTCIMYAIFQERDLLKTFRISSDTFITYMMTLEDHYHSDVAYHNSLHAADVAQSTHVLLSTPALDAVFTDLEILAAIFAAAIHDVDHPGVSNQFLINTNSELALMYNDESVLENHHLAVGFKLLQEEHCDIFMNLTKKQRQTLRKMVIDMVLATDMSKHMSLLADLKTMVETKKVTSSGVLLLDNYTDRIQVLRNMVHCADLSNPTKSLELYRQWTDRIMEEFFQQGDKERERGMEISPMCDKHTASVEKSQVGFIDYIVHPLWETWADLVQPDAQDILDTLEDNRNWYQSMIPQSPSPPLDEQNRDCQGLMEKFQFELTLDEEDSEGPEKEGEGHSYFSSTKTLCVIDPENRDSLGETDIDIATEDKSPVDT

## O=C(COc1ccc2c(c1)N(c1nc(-c3ccc(Cl)s3)nc3c1CCC3)CC2)N1CCOCC1 [Compound No. 2-128, 2-((1-(2-(5-Chlorothiophen-2-yl)-6,7-dihydro-5H-cyclopenta[d]pyrimidin-4-yl)indolin-6-yl)oxy)-1-morpholinoethanone]
  inhibition at 1 µM: 85%
  IC50: 100 to 1000 nM

## CN(C)C(=O)COc1ccc2c(c1)N(c1nc(-c3ccc(C(N)=O)s3)nc3c1C[S+]([O-])C3)CC2 (stereo not shown) [Compound No. 2-80, 5-(4-(6-(2-(Dimethylamino)-2-oxoethoxy)indolin-1-yl)-6-oxido-5,7-dihydrothieno[3,4-d]pyrimidin-2-yl)thiophene-2-carboxamide]
Percentage inhibition of PDE4B at 0.1 μM test concentration, read-out: Inhibition [%] (inh. at 0.1 μM)
  inhibition at 0.1 µM: 101%
  IC50: < 100 nM

## O=C(O)c1ccc2c(c1)CCN2c1nc(-c2ccc(Cl)s2)nc2c1CCC2 [Compound No. 1-72, 1-(2-(5-Chlorothiophen-2-yl)-6,7-dihydro-5H-cyclopenta[d]pyrimidin-4-yl)indoline-5-carboxylic acid]
  inhibition at 1 µM: 59%
  IC50: 100 to 1000 nM

## NC(=O)COc1ccc2c(c1)N(c1nc(-c3ccc(Cl)s3)nc3c1CCC3)CC2 [Compound No. 2-71, 2-((1-(2-(5-Chlorothiophen-2-yl)-6,7-dihydro-5H-cyclopenta[d]pyrimidin-4-yl)indolin-6-yl)oxy)acetamide]
  inhibition at 1 µM: 14%

## CCNC(=O)COc1ccc2c(c1)N(c1nc(-c3ccc(Cl)s3)nc3c1CCC3)CC2 [Compound No. 2-68, 2-((1-(2-(5-Chlorothiophen-2-yl)-6,7-dihydro-5H-cyclopenta[d]pyrimidin-4-yl)indolin-6-yl)oxy)-N-ethylacetamide]
  inhibition at 1 µM: 2%

## COc1ccc(-c2nc3c(c(N4CCc5ccc(OCC(=O)N6CCCC6)cc54)n2)C[S+]([O-])C3)cc1F (stereo not shown) [Compound No. 2-119, 2-((1-(2-(3-Fluoro-4-methoxyphenyl)-6-oxido-5,7-dihydrothieno[3,4-d]pyrimidin-4-yl)indolin-6-yl)oxy)-1-(pyrrolidin-1-yl)ethanone]
  inhibition at 1 µM: 107%

## CN(C)C(=O)COc1ccc2c(c1)N(c1nc(-c3ccc(F)s3)nc3c1C[S+]([O-])C3)CC2 (stereo not shown) [2-48, 2-((1-(2-(5-Fluorothiophen-2-yl)-6-oxido-5,7-dihydrothieno[3,4-d]pyrimidin-4-yl)indolin-6-yl)oxy)-N,N-dimethylacetamide]
  inhibition at 1 µM: 94%
  IC50: < 100 nM

## CN(C(=O)COc1ccc2c(c1)N(c1nc(-c3ccc(Cl)s3)nc3c1CCC3)CC2)C1CC1 [Compound No. 2-64, 2-((1-(2-(5-Chlorothiophen-2-yl)-6,7-dihydro-5H-cyclopenta[d]pyrimidin-4-yl)indolin-6-yl)oxy)-N-cyclopropyl-N-methylacetamide]
  inhibition at 1 µM: 65%
  IC50: 100 to 1000 nM

## O=C(O)c1ccc2ncn(-c3nc(-c4ccc(Cl)s4)nc4c3CCC4)c2c1 (single isomer, unassigned) [Compound No. 1-74, 1-(2-(5-Chlorothiophen-2-yl)-6,7-dihydro-5H-cyclopenta[d]pyrimidin-4-yl)-1H-benzo[d]imidazole-6-carboxylic acid]
  inhibition at 1 µM: 31%

## O=C(O)c1ccc2c(cnn2-c2nc(-c3ccc(Cl)s3)nc3c2CCC3)c1 [Compound No. 1-73, 1-(2-(5-Chlorothiophen-2-yl)-6,7-dihydro-5H-cyclopenta[d]pyrimidin-4-yl)-1H-indazole-5-carboxylic acid]
  inhibition at 1 µM: 80%
  IC50: 100 to 1000 nM

## COc1ccc(-c2nc3c(c(N4CCc5ccc(OCC(=O)N(C)C)cc54)n2)C[S+]([O-])C3)cn1 (stereo not shown) [Compound No. 2-139, 2-((1-(2-(6-Methoxypyridin-3-yl)-6-oxido-5,7-dihydrothieno[3,4-d]pyrimidin-4-yl)indolin-6-yl)oxy)-N,N-dimethylacetamide]
  IC50: < 100 nM

## N#CCOc1ccc2c(c1)N(c1nc(-c3ccc(Cl)s3)nc3c1CS(=O)(=O)C3)CC2 [Compound No. 3-1, 2-((1-(2-(5-Chlorothiophen-2-yl)-6,6-dioxido-5,7-dihydrothieno[3,4-d]pyrimidin-4-yl)indolin-6-yl)oxy)acetonitrile]
  IC50: 100 to 1000 nM

## CN(C)C(=O)COc1ccc2c(c1)N(c1nc(-c3ccc(C#N)s3)nc3c1CCC3)CC2 [Compound No. 2-84, 2-((1-(2-(5-Cyanothiophen-2-yl)-6,7-dihydro-5H-cyclopenta[d]pyrimidin-4-yl)indolin-6-yl)oxy)-N,N-dimethylacetamide]
  inhibition at 1 µM: 91%
  IC50: < 100 nM

## CN(C)C(=O)COc1ccc2c(c1)N(c1nc(-c3ccc(Cl)c(F)c3)nc3c1C[S+]([O-])C3)CC2 (stereo not shown) [Compound No. 2-78, 2-((1-(2-(4-Chloro-3-fluorophenyl)-6-oxido-5,7-dihydrothieno[3,4-d]pyrimidin-4-yl)indolin-6-yl)oxy)-N,N-dimethylacetamide]
  inhibition at 1 µM: 105%
  IC50: < 100 nM

## O=C(O)Cc1ccc2c(c1)CC(=O)N2c1nc(-c2ccc(F)s2)nc2c1CCC2 [Compound No. 1-65, 2-(1-(2-(5-Fluorothiophen-2-yl)-6,7-dihydro-5H-cyclopenta[d]-pyrimidin-4-yl)-2-oxoindolin-5-yl)acetic acid]
  inhibition at 1 µM: 34%

## CN(C)C(=O)COc1ccc2c(c1)N(c1nc(-c3ccccc3F)nc3c1C[S+]([O-])C3)CC2 (stereo not shown) [2-100, 2-[[1-[2-(2-Fluorophenyl)-6-oxo-5,7-dihydro-thieno[3,4-d]pyrimidin-4-yl]-2,3-dihydro-1H-indol-6-yl]oxy]-N,N-dimethyl-acetamide]
  inhibition at 1 µM: 100%
  IC50: < 100 nM

## CN(CC1CC1)C(=O)COc1ccc2c(c1)N(c1nc(-c3ccc(Cl)s3)nc3c1CS(=O)(=O)C3)CC2 [Compound No. 2-57, 2-((1-(2-(5-Chlorothiophen-2-yl)-6,6-dioxido-5,7-dihydrothieno[3,4-d]pyrimidin-4-yl)indolin-6-yl)oxy)-N-(cyclopropylmethyl)-N-methylacetamide]
  inhibition at 1 µM: 89%
  IC50: < 100 nM

## CCOc1ccc(-c2nc3c(c(N4CCc5ccc(OCC(=O)N(C)C)cc54)n2)C[S+]([O-])C3)cc1 (stereo not shown) [2-110, 2-[[1-[2-(4-Ethoxyphenyl)-6-oxo-5,7-dihydro-thieno[3,4-d]pyrimidin-4-yl]-2,3-dihydro-1H-indol-6-yl]oxy]-N,N-dimethyl-acetamide]
  inhibition at 1 µM: 119%
  IC50: < 100 nM

## CN(C)C(=O)COc1ccc2c(c1)N(c1nc(-c3ccc4occc4c3)nc3c1C[S+]([O-])C3)CC2 (stereo not shown) [2-154, 2-[[1-[2-(Benzofuran-5-yl)-6-oxo-5,7-dihydro-thieno[3,4-d]pyrimidin-4-yl]-2,3-dihydro-1H-indol-6-yl]oxy]-N,N-dimethyl-acetamide]
  inhibition at 1 µM: 104%
  IC50: < 100 nM

## CN1CCN(C(=O)COc2ccc3c(c2)N(c2nc(-c4ccc(Cl)s4)nc4c2C[S+]([O-])C4)CC3)CC1 (stereo not shown) [Compound No. 2-117, 2-((1-(2-(5-Chlorothiophen-2-yl)-6-oxido-5,7-dihydrothieno[3,4-d]pyrimidin-4-yl)indolin-6-yl)oxy)-1-(4-methylpiperazin-1-yl)ethanone]
  inhibition at 1 µM: 88%

## COc1ccc(-c2nc3c(c(N4CCc5ccc(OCC(=O)N(C)C)cc54)n2)C[S+]([O-])C3)nc1 (stereo not shown) [Compound No. 2-141, 2-((1-(2-(5-Methoxypyridin-2-yl)-6-oxido-5,7-dihydrothieno[3,4-d]pyrimidin-4-yl)indolin-6-yl)oxy)-N,N-dimethylacetamide]
  inhibition at 1 µM: 98%
  IC50: < 100 nM
